Measured values from patent US12435046B2, “Alkynyl quinazoline compounds” (Black Diamond Therapeutics, Inc., priority 2019, dated 2025).

What was measured:
Format in all cases: cell-based
Conditions in all cases: Table A; BaF3 cells, 3 days
[1] = target: T1, EGFR wt (Homo sapiens, UniProt P00533); experiment: BaF3 cell proliferation assay (CellTiterGlo), EGFR wt
T1 construct: expressed in transfected cells; host or cells: BaF3 (murine pro-B) cells, retroviral transduction with pMXs-IRES-Blasticidin
T1 sequence (P00533 25-1210): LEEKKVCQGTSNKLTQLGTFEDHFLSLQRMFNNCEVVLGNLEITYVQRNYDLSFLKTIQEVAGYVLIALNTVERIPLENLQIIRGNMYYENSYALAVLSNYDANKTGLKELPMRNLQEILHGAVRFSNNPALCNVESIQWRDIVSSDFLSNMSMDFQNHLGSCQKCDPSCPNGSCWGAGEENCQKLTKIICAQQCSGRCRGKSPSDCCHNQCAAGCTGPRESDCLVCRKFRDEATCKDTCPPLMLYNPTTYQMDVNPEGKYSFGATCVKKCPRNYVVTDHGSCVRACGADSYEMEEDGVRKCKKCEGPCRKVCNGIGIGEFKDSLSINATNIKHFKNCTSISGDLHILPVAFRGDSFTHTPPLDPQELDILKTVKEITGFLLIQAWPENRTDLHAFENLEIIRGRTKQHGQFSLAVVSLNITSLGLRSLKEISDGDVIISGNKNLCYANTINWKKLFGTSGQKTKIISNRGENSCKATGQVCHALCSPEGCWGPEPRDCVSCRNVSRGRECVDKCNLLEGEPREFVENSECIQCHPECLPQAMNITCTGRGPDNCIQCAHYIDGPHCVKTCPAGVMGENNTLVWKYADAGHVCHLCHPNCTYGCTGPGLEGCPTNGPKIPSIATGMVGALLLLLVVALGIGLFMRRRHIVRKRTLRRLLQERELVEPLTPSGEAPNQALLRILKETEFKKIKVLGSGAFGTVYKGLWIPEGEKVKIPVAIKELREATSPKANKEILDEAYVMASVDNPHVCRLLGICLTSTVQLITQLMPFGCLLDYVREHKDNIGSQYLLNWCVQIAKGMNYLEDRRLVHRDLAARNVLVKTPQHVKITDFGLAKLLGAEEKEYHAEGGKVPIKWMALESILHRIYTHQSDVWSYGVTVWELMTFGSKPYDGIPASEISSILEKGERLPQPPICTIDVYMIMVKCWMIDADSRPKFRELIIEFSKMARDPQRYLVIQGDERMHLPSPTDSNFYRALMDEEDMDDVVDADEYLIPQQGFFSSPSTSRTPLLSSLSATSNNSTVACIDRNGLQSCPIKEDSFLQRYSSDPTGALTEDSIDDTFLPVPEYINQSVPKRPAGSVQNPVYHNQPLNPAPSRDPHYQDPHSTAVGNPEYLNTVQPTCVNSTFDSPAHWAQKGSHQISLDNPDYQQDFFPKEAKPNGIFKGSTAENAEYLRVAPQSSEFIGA
Procedure: (§1) Retroviral Production: EGFR mutants were subcloned into pMXs-IRES-Blasticidin (RTV-016, Cell Biolabs, San Diego, CA). Retroviral expression vector retrovirus was produced by transient transfection of HEK 293T cells with the retroviral EGFR mutant expression vector pMXs-IRES-Blasticidin (RTV-016, Cell Biolabs), pCMV-Gag-Pol vector and pCMV-VSV-G-Envelope vector. Briefly, HEK 293T/17 cells were plated in 100 mm collagen coated plate (354450, Corning Life Sciences, Tewksbury, MA) (4×10^5 per plate) and incubated overnight. The next day, retroviral plasmids (3 ng of EGFR mutant, 1.0 ng of pCMV-Gag-Pol and 0.5 ng pCMV-VSV-G) were mixed in 500 n1 of Optimem (31985, Life Technologies). The mixture was incubated at room temperature for 5 min and then added to Optimem containing transfection reagent Lipofectamine (11668, Invitrogen) and incubated for 20 minutes. Mixture was then added dropwise to HEK 293T cells. The next day the medium was replaced with fresh culture medium and retrovirus was harvested @ 24 and 48 hrs.
(§2) Generation of EGFR mutant stable cell lines: BaF3 cells (1.5E5 cells) were infected with 1 ml of viral supernatant supplemented with 8 ng/ml polybrene by centrifuging for 30 min at 1000 rpm. Cells were placed in a 37° C. incubator overnight. Cells were then spun for 5 minutes to pellet the cells. Supernatant was removed and cells re-infected a fresh 1 ml of viral supernatant supplemented with 8 ng/ml polybrene by centrifuging for 30 min at 1000 rpm. Cells were placed in 37° C. incubator overnight. Cells were then maintained in RPMI containing 10% Heat Inactivated FBS, 2% L-glutamine containing 10 ng/ml IL-3. After 48 hours cells were selected for retroviral infection in 10 […] for one week. Blasticidin resistant populations were washed twice in phosphate buffered saline before plating in media lacking IL-3 to select for IL-3 independent growth.
(§3) Assay for cell proliferation: BaF3 cell lines were resuspended at 1.3E5 c/ml in RPMI containing 10% Heat Inactivated FBS, 2% L-glutamine and 1% Pen/Strep and dispensed in triplicate (17.5E4 c/well) into 96 well plates. To determine the effect of drug on cell proliferation, cells incubated for 3 days in the presence of vehicle control or test drug at varying concentrations. Inhibition of cell growth was determined by luminescent quantification of intracellular ATP content using CellTiterGlo (Promega), according to the protocol provided by the manufacturer. Comparison of cell number on day 0 versus 72 hours post drug treatment was used to plot dose-response curves. The number of viable cells was determined and normalized to vehicle-treated controls. Inhibition of proliferation, relative to vehicle-treated controls was expressed as a fraction of 1 and graphed using PRISM® software (Graphpad Software, San Diego, CA). EC50 values were determined with the same application.

[2] = target: T2, EGFR V3 (Homo sapiens, UniProt P00533, DELINS30-297G); experiment: BaF3 cell proliferation assay (CellTiterGlo), EGFR V3
T2 construct: expressed in transfected cells; host or cells: BaF3 (murine pro-B) cells, retroviral transduction with pMXs-IRES-Blasticidin
T2 sequence (P00533 with tags, fused parts or gaps DELINS30-297G): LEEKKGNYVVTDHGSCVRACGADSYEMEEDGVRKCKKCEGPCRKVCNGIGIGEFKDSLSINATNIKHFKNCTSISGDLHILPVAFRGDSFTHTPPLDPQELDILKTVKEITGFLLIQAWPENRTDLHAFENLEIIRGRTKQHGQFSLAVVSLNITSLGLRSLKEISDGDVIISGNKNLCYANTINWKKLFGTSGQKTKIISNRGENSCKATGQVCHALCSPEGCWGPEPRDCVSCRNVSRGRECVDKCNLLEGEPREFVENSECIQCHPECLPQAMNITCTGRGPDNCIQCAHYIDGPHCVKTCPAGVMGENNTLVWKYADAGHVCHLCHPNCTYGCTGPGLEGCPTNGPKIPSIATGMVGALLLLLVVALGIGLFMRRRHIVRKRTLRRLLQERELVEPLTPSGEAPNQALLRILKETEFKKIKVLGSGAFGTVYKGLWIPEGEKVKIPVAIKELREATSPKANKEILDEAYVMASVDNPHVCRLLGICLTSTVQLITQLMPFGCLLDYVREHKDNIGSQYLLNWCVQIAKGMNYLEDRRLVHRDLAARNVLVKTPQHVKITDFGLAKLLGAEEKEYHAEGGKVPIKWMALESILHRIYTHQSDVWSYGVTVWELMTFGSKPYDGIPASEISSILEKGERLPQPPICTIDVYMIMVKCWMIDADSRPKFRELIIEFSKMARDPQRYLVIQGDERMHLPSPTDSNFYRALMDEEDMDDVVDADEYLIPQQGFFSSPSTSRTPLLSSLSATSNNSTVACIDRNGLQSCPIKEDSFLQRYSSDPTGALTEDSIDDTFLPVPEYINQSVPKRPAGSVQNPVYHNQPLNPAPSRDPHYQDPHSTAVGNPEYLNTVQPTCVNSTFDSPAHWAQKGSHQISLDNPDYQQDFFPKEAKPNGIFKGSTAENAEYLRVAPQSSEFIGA
Procedure: as §1, §2, §3

[3] = target: T3, HER2 S310F (Homo sapiens, UniProt P04626, S310F); experiment: BaF3 cell proliferation assay (CellTiterGlo), HER2 S310F
T3 construct: expressed in transfected cells; host or cells: BaF3 (murine pro-B) cells
T3 sequence (P04626 23-1255 S310F): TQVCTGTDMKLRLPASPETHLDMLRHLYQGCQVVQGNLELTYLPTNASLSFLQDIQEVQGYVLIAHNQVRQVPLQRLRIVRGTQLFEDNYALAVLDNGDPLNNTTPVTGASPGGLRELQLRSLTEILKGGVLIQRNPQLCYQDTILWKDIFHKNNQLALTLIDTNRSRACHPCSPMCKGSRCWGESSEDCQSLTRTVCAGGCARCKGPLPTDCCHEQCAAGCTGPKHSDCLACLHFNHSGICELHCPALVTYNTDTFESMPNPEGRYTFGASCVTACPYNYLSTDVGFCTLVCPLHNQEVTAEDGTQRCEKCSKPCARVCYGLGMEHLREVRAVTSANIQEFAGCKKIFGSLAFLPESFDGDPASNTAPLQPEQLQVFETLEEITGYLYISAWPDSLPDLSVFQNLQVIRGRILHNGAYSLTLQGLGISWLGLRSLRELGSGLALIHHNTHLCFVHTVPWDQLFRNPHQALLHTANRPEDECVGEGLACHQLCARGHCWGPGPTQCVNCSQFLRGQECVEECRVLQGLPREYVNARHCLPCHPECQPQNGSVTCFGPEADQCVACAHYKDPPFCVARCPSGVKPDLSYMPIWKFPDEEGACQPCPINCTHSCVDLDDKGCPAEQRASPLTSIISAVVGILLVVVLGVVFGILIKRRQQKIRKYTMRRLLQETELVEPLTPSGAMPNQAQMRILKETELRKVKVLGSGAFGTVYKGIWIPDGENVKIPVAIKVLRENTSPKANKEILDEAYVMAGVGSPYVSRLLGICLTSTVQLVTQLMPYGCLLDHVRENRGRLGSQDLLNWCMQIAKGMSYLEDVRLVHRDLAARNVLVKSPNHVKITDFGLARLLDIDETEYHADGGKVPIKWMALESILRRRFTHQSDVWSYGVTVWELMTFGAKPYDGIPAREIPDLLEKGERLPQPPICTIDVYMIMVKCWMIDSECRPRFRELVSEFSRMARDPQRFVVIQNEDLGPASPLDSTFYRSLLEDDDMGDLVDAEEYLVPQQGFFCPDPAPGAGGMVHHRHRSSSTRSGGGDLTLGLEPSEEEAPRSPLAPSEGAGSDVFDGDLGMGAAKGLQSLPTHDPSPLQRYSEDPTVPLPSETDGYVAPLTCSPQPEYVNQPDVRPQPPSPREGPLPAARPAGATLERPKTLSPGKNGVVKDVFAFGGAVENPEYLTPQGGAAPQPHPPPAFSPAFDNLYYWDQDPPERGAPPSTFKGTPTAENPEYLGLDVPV

[4] = target: T4, HER2 YVMA (Homo sapiens, UniProt P04626, INS775YVMA); experiment: BaF3 cell proliferation assay (CellTiterGlo), HER2 YVMA
T4 construct: expressed in transfected cells; host or cells: BaF3 (murine pro-B) cells
T4 sequence (P04626 with tags, fused parts or gaps INS775YVMA): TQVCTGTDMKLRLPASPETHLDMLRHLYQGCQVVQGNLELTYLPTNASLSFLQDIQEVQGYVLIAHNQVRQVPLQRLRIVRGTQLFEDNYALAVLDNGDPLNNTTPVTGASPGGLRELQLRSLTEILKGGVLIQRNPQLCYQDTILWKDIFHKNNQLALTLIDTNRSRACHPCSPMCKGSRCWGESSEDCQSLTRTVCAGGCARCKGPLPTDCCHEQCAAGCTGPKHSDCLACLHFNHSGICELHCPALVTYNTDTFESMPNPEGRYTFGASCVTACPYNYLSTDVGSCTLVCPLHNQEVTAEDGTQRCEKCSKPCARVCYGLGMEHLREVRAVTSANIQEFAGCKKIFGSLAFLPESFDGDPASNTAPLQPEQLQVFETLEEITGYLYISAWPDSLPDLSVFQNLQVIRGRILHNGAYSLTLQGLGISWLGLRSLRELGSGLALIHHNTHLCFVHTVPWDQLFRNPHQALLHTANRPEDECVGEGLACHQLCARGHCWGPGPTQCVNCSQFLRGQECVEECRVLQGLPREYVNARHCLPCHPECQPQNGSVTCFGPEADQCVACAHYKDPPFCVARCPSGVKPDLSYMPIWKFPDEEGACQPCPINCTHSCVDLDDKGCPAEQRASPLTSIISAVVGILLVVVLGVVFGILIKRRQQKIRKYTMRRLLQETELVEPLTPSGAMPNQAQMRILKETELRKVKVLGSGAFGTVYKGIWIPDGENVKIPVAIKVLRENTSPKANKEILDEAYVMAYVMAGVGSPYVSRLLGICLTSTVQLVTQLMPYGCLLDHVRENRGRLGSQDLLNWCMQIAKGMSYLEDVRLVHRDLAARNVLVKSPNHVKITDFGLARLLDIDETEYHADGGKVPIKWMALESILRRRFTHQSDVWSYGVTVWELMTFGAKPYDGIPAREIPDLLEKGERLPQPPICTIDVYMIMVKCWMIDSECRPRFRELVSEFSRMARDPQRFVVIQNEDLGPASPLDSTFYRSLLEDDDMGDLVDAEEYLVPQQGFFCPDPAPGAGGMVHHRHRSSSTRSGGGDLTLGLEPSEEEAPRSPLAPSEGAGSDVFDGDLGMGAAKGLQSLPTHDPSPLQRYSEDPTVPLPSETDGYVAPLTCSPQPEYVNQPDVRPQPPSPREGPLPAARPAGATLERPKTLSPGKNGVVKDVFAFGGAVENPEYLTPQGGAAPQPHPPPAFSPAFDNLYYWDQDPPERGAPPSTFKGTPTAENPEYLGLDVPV

Compound | IC50 [1] [nM] | IC50 [2] [nM] | IC50 [3] [nM] | IC50 [4] [nM]
C=CC(=O)Nc1cc2c(Nc3cccc(Cl)c3F)ncnc2cc1C#CC1(C)CN(C)C2(COC2)C1 (centres unmarked) [Compound 47, N-(4-((3-chloro-2-fluorophenyl)amino)-7-((5,7-dimethyl-2-oxa-5-azaspiro[3.4]octan-7-yl)ethynyl)quinazolin-6-yl)acrylamide] | > 500 | 100 to 500 | > 500 | > 500
C=CC(=O)Nc1cc2c(Nc3ccc(OCc4ccccn4)c(Cl)c3)ncnc2cc1C#C[C@@]1(C)CCCN1C [Compound 16, (R)—N-(4-((3-chloro-4-(pyridin-2-ylmethoxy)phenyl)amino)-7-((1,2-dimethylpyrrolidin-2-yl)ethynyl)quinazolin-6-yl)acrylamide] | > 500 | 50 to 100 | ≤ 50 | 100 to 500
C=CC(=O)Nc1cc2c(Nc3cccc(Cl)c3F)ncnc2cc1C#C[C@]12C[C@H]1CN(C)C2 [Compound 49, N-(4-((3-chloro-2-fluorophenyl)amino)-7-(((1S,5R)-3-methyl-3-azabicyclo[3.1.0]hexan-1-yl)ethynyl)quinazolin-6-yl)acrylamide] | 50 to 100 | ≤ 50 | 50 to 100 | 100 to 500
C=CC(=O)Nc1cc2c(Nc3cccc(Cl)c3F)ncnc2cc1C#C[C@@]12C[C@@H]1CN(C1COC1)C2 [Compound 50, N-(4-((3-chloro-2-fluorophenyl)amino)-7-(((1R,5S)-3-(oxetan-3-yl)-3-azabicyclo[3.1.0]hexan-1-yl)ethynyl)quinazolin-6-yl)acrylamide] | 50 to 100 | ≤ 50 | 50 to 100 | 100 to 500
C=CC(=O)Nc1cc2c(Nc3ccc(F)c(Cl)c3F)ncnc2cc1C#CC1(C)CCN(C)C1 (centres unmarked) [Compound 8, N-(4-((3-chloro-2,4-difluorophenyl)amino)-7-((1,3-dimethylpyrrolidin-3-yl)ethynyl)-quinazolin-6-yl)acrylamide] | ≤ 50 | ≤ 50 | 50 to 100 | 100 to 500
CN1C[C@H]2C[C@@]2(C#Cc2cc3ncnc(Nc4cccc(Cl)c4F)c3cc2NC(=O)C(F)Cl)C1 (stereo partly drawn) [Compound 23, 2-chloro-N-(4-((3-chloro-2-fluorophenyl)-amino)-7-(((1R,5S)-3-methyl-3-azabicyclo[3.1.0]hexan-1-yl)ethynyl)quinazolin-6-yl)-2-fluoroacetamide] | 50 to 100 | > 500 | 100 to 500 | 
C=CC(=O)Nc1cc2c(Nc3ccc(OCc4ccccn4)c(Cl)c3)ncnc2cc1C#C[C@]1(C)CCN(C)C1 [Compound 13, (S)—N-(4-((3-chloro-4-(pyridin-2-ylmethoxy)phenyl)amino)-7-((1,3-dimethylpyrrolidin-3-yl)ethynyl)quinazolin-6-yl)acrylamide] | 100 to 500 | ≤ 50 | ≤ 50 | ≤ 50
C=CC(=O)Nc1cc2c(Nc3ccc(Cl)c(Cl)c3F)ncnc2cc1C#CC1(C)CCN(C)C1 (centres unmarked) [Compound 7, N-(4-((3,4-dichloro-2-fluorophenyl)amino)-7-((1,3-dimethylpyrrolidin-3-yl)ethynyl)quinazolin-6-yl)acrylamide] | ≤ 50 | ≤ 50 | 50 to 100 | 100 to 500

Now from value to compound:

IC50 [1] [nM] | IC50 [2] [nM] | IC50 [3] [nM] | IC50 [4] [nM] | Compound
> 500 | 100 to 500 | 50 to 100 | 100 to 500 | C=CC(=O)Nc1cc2c(Nc3ccc(OCc4cccc(F)c4)c(Cl)c3)ncnc2cc1C#C[C@@H]1[C@H]2CN(C)C[C@@H]12 [Compound 76, N-(4-((3-chloro-4-((3-fluorobenzyl)oxy)-phenyl)amino)-7-(((1R,5S,6s)-3-methyl-3-azabicyclo[3.1.0]hexan-6-yl)ethynyl)quinazolin-6-yl)acrylamide]
50 to 100 | ≤ 50 | ≤ 50 | 100 to 500 | C=CC(=O)Nc1cc2c(Nc3ccc(O)c(Cl)c3)ncnc2cc1C#C[C@@H]1[C@H]2CN(C)C[C@@H]12 [Compound 73, N-(4-((3-chloro-4-hydroxyphenyl)amino)-7-(((1R,5S,6s)-3-methyl-3-azabicyclo[3.1.0]hexan-6-yl)ethynyl)quinazolin-6-yl)acrylamide]
> 500 | 100 to 500 | > 500 | > 500 | C=CC(=O)Nc1cc2c(Nc3cccc(Cl)c3F)ncnc2cc1C#CC1(C)CCN(CC(F)(F)F)C1 (centres unmarked) [Compound 68, N-(4-((3-chloro-2-fluorophenyl)amino)-7-((3-methyl-1-(2,2,2-trifluoroethyl)-pyrrolidin-3-yl)ethynyl)quinazolin-6-yl)acrylamide]
50 to 100 | ≤ 50 | ≤ 50 | 100 to 500 | C=CC(=O)Nc1cc2c(Nc3cccc(Cl)c3F)ncnc2cc1C#C[C@@]12C[C@@H]1CN(C)C2 [Compound 51, N-(4-((3-chloro-2-fluorophenyl)amino)-7-(((1R,5S)-3-methyl-3-azabicyclo[3.1.0]hexan-1-yl)ethynyl)quinazolin-6-yl)acrylamide]
50 to 100 | ≤ 50 | ≤ 50 | ≤ 50 | CC#CC(=O)Nc1cc2c(Nc3ccc(OCc4ccccn4)c(Cl)c3)ncnc2cc1C#CC1(C)CCN(C)C1 (centres unmarked) [Compound 70, N-(4-((3-chloro-4-(pyridin-2-ylmethoxy)phenyl)amino)-7-((1,3-dimethylpyrrolidin-3-yl)ethynyl)quinazolin-6-yl)but-2-ynamide]
> 500 | ≤ 50 | 100 to 500 | > 500 | C=CC(=O)Nc1cc2c(Nc3cccc(Cl)c3F)ncnc2cc1C#CC1(C)CCCN(C)C1 (centres unmarked) [Compound 66, N-(4-((3-chloro-2-fluorophenyl)amino)-7-((1,3-dimethylpiperidin-3-yl)ethynyl)quinazolin-6-yl)acrylamide]
100 to 500 | ≤ 50 | 50 to 100 | > 500 | CC#CC(=O)Nc1cc2c(Nc3cccc(Cl)c3F)ncnc2cc1C#C[C@@H]1[C@H]2CN(C)C[C@@H]12 [Compound 74, N-(4-((3-chloro-2-fluorophenyl)amino)-7-(((1R,5S,6s)-3-methyl-3-azabicyclo[3.1.0]hexan-6-yl)ethynyl)quinazolin-6-yl)but-2-ynamide]
100 to 500 | ≤ 50 | 50 to 100 | 100 to 500 | C=CC(=O)Nc1cc2c(Nc3cccc(Cl)c3F)ncnc2cc1C#CC1(OC)CCN(C)C1 (centres unmarked) [Compound 52, N-(4-((3-chloro-2-fluorophenyl)amino)-7-((3-methoxy-1-methylpyrrolidin-3-yl)ethynyl)quinazolin-6-yl)acrylamide]
> 500 | ≤ 50 | ≤ 50 | 50 to 100 | C=CC(=O)Nc1cc2c(Nc3ccc(OCc4ccccn4)c(Cl)c3)ncnc2cc1C#CC1(C)CCN(C)CC1 [Compound 72, N-(4-((3-chloro-4-(pyridin-2-ylmethoxy)phenyl)amino)-7-((1,4-dimethylpiperidin-4-yl)ethynyl)quinazolin-6-yl)acrylamide]
100 to 500 | ≤ 50 | 100 to 500 | > 500 | C=CC(=O)Nc1cc2c(Nc3cccc(Cl)c3F)ncnc2cc1C#C[C@@]1(C)CCN(C2COC2)C1 [Compound 59, (R)—N-(4-((3-chloro-2-fluorophenyl)amino)-7-((3-methyl-1-(oxetan-3-yl)pyrrolidin-3-yl)ethynyl)quinazolin-6-yl)acrylamide]
 | 100 to 500 | > 500 | > 500 | CN1CC[C@](C)(C#Cc2cc3ncnc(Nc4cccc(Cl)c4F)c3cc2NC(=O)/C=C/CN2CCOCC2)C1 [Compound No. 81, (R,E)-N-(4-((3-chloro-2-fluorophenyl)amino)-7-((1,3-dimethylpyrrolidin-3-yl)ethynyl)quinazolin-6-yl)-4-morpholinobut-2-enamide]
